According to patent publication US12122760B2, “Compound, composition, and use thereof in preparation of drug” (CHANGSHA ZEDA MEDICAL TECH. CO., LTD, priority 2019, dated 2024):

Tests used:
androgen receptor (AR) = biological target: T1, androgen receptor (AR) (Homo sapiens, UniProt P10275); experiment: Luciferase reporter gene experiment (MMTV-LUC + pSV-AR in 293T cells); format: cell-based; conditions: 10 nM DHT, FIG. 2
T1 construct: expressed in transfected cells; host or cells: 293T cells
T1 sequence (P10275 1-920): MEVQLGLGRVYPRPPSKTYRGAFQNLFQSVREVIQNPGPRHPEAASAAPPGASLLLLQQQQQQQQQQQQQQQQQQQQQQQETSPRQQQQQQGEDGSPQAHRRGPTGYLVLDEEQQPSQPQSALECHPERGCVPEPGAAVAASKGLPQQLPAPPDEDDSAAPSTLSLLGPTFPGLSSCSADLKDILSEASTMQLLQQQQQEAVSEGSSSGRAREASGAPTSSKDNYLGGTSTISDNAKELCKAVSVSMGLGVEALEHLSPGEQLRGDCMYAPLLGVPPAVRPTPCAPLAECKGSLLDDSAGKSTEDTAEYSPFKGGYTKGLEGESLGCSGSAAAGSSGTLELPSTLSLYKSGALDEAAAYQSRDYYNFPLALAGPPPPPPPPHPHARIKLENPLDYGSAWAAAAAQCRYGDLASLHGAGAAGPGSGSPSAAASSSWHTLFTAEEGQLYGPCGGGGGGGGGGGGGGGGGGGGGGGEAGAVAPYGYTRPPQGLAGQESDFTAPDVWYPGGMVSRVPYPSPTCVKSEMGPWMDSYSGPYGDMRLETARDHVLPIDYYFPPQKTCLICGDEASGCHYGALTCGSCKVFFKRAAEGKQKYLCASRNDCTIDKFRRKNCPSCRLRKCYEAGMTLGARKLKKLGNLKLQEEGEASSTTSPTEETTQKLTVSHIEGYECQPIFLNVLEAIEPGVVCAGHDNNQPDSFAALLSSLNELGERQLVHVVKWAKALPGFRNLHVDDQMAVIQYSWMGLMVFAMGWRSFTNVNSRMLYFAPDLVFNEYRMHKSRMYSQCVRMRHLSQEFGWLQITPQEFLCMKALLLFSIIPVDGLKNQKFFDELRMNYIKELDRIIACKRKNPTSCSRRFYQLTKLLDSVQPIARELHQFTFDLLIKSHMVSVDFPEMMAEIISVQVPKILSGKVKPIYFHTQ
Method: 293T cells are cultured in a 96-well plate. AR plasmids and luciferase genes with AR target promoters are co-transfected in the 293T cells. AR activates the target promoters to express luciferase, and the expression level of the luciferase is directly proportional to AR activation. Adding DHT to the cells can activate AR and express the luciferase, thus enhancing fluorescence signal detection. By detecting the fluorescent signal, it can be examined whether an added drug has AR antagonist activity.
The luciferase reporter gene plasmid MMTV-LUC containing the androgen receptor (AR) target promoters and the plasmid pSV-AR expressing the androgen receptor (AR) are constructed. The 293T cells are inoculated in a 96-well plate, wherein each well containing 1×10^4 cells. The cells are incubated overnight to stick to the wall. On the second day, Lipofectamine® 3000 (Life technologies, USA) is used to transfect the plasmid into the cells. Each well is added with 180 ng of MMTV-LUC plasmid and 20 ng of pSV-AR plasmid. On the third day, each well is added with 10 nM of the DHT and the drugs of different concentrations of 1 nM, 10 nM, 100 nM, 1 uM, 10 uM, 25 uM, 50 uM respectively. The control is 10 nM of the DHT. On the fifth day, a luciferase reporter gene detection kit (Biyuntian company, China) is used to process the cells. 100 uL of cell lysate is added to the 96-well plate, and lyse for 20 min. Then centrifuging is performed at 4 degrees and 10000 g for 3 min. 50 uL of supernatant is taken and 100 uL of a luciferase detection reagent is added. After mixing, chemiluminescence is immediately detected on the multi-functional microplate reader. Graphpad Prism software is used to draw a curve by using the drug concentration as an abscissa and using drug fluorescence value/positive control fluorescence value as an ordinate. Herein MDV3100 is the positive control.

[1] = system: Histone deacetylase (HDAC); experiment: HDAC inhibitory activity: Kac-H3 Western Blot in VCaP cells; format: cell-based; conditions: 10 uM drug, 24 h, FIG. 5
Method: (§1) The VCap cells are cultured in the 6-well plate. After treating the VCap cells with the drugs for 24 hours, acetylation levels of the tubulin in the cytoplasm and the H3 protein in the nucleus are examined by the western blot. An experiment process is as follows:
The VCaP cells are spread in the 6-well plate. 5×10^5 cells are inoculated per well, and incubated overnight to make the cells stick to a wall. Then 10 uM of the drug is added to each well. The cells are collected after being incubated for 24 h. The EpiQuik Total Histone Extraction kit (Epigentek, USA) is used to extract the histones, and the Western Blot method is used to detect expression levels of Kac-H3 (localized cell nucleus) in the cells after adding the different drugs.

VCaP cells = experiment: Inhibiting effect on VCaP cell proliferation (MTS); format: cell-based; conditions: 4 days treatment, FIG. 6; for cell proliferation inhibitory effect compared with positive control drug MDV3100: VCaP cells
Method: Androgen-sensitive prostate cancer cell (VCaP cells) are cultured in a 96-well plate. The VCaP cells are able to proliferate in a medium supplemented with 10 nM of the DHT. After treating the cells with the drugs for 4 days, we measure the effects of the drugs on the proliferation of the prostate cancer cells.
The VCaP cells are cultured by using 5% CSS and 1640 medium without phenol red, and inoculated in the 96-well plate. 1×10^4 cells are added to each well, and incubated overnight to make the cells stick to a wall. Different concentrations of the drugs are added on the second day. After treating the cells with the drugs for 4 days, cell viability is measured by the MTS kit (Promega, USA). To each well, 10% of an MTS reagent is added, and incubation continued for 2 hours. The absorbance value at […] is then measured by the multi-functional microplate reader. The Graphpad Prism software is used to draw a curve by using the drug concentration as an abscissa and using the absorbance value of the drug treatment/the absorbance value of the blank treatment cell as an ordinate.

AR-LBD (GST) = biological target: T2, AR-LBD (GST) (Rattus norvegicus, UniProt P15207); experiment: PolarScreen Androgen Receptor (AR) Competitor Assay, binding experiment of the antagonist and AR; conditions: fluorescence polarization, incubated 6 hours, FIG. 1; read-out: IC50 of the drug and AR-LBD binding
T2 construct: purchased Life technologies company, USA
T2 sequence (P15207 651-882 limits assumed): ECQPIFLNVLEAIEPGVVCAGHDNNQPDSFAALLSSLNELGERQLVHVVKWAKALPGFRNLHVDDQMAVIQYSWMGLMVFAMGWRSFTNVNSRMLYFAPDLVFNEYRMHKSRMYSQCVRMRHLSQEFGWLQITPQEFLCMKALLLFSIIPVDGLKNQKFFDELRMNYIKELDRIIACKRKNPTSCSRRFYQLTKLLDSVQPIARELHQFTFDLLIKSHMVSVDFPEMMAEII
Text: PolarScreen™ Androgen Receptor (AR) Competitor Assay, Green kit (Life technologies company, USA) is used to test the affinity of the antagonist to AR-LBD (GST). The mechanism of the experiment is that the AR-LBD is combined with a small molecule fluormone tracer (Fluormone Tracer), and an antagonist added can competitively bind with AR-LBD so as to replace the fluormone tracer, and the replaced fluormone tracer […], and the value of the fluorescence polarization is inversely proportional to the number of the replaced tracers.
A specific process is as follows: the drug is dissolved into 500 uM by using DMSO, and then diluted to 244 nM by double dilution concentration gradients in a 96-well plate. A 10 uL of a reaction system AR-LBD+Tracer is configured in a 384-well plate and 10 uL of the drug solution is added. The positive control is 10 uL of AR-LBD+Tracer with 10 uL of DHT added. The 384-well plate is wrapped by tin foil and incubated for 6 hours in the dark. The fluorescence polarization value is read on a multi-function microplate reader. Graphpad Prism software is used to draw a drug concentration as an abscissa, and the fluorescence polarization value is used as an ordinate for drawing a curve. […] Herein, the DHT, MDV3100, and ARN509 are positive controls.

[2] = system: Histone deacetylase (HDAC); experiment: HDAC inhibitory activity: Kac-tubulin Western Blot in VCaP cells; format: cell-based; conditions: 10 uM drug, 24 h, FIG. 4
Method: as §1
The VCaP cells are spread in the 6-well plate. 5×10^5 cells are inoculated per well, and incubated overnight to make the cells stick to a wall. On the second day, 10 uM of the drug is added per well. After being incubated for 24 h, the cells are collected, and lysed to extract the cell total protein. The Western Blot method is used to detect the expression levels of Kac-tubilin (localized cytoplasm) in the cells after treating with the different drugs.

N#Cc1ncc(N2C(=O)C3(CCC3)N(c3ccc(C(=O)NO)c(F)c3)C2=S)cc1C(F)(F)F [Zeta 57, 4-(7-(6-cyano-5-(trifluoromethyl)pyridin-3-yl)-8-oxo-6-thio-5,7-diazaspiro[3.4]octane-5-yl)-2-fluoro-N-hydroxybenzamide]
antagonist effect on the AR, antagonistic ability from high to low (androgen receptor (AR)): Zeta32>Zeta55>Zeta34>Zeta57>Zeta33 | H3 acetylation in the nucleus (HDAC inhibitory activity) [1]: superior | inhibitory effect on the VCap cell proliferation, from high to low (VCaP cells): Zeta55>Zeta32>Zeta33>Zeta34>Zeta57

CC1(C)C(=O)N(c2cnc(C#N)c(C(F)(F)F)c2)C(=S)N1c1ccc(C(=O)NO)c(F)c1 [Zeta 33, 4-(3-(6-cyano-5-(trifluoromethyl)pyridin-3-yl)-5,5-dimethyl-4-oxo-2-thioimidazolidine-1-yl)-2-fluoro-N-hydroxybenzamide]
antagonist effect on the AR, antagonistic ability from high to low (androgen receptor (AR)): Zeta32>Zeta55>Zeta34>Zeta57>Zeta33 | IC50 (AR-LBD (GST)): 27.5 µM | inhibitory effect on the VCap cell proliferation, from high to low (VCaP cells): Zeta55>Zeta32>Zeta33>Zeta34>Zeta57 | cell proliferation inhibitory effect compared with positive control drug MDV3100 (VCaP cells): better than that of the positive control drug MDV3100

CC1(C)C(=O)N(c2ccc(C#N)c(C(F)(F)F)c2)C(=S)N1c1ccc(C(=O)NO)c(F)c1 [Zeta 32, 4-(3-(4-cyano-3-(trifluoromethyl)phenyl)-5,5-dimethyl-4-oxo-2-thioimidazolidine-1-yl)-2-fluoro-N-hydroxybenzamide]
antagonist effect on the AR, antagonistic ability from high to low (androgen receptor (AR)): Zeta32>Zeta55>Zeta34>Zeta57>Zeta33 | H3 acetylation in the nucleus (HDAC inhibitory activity) [1]: superior | IC50 (AR-LBD (GST)): 25.1 µM | inhibitory effect on the VCap cell proliferation, from high to low (VCaP cells): Zeta55>Zeta32>Zeta33>Zeta34>Zeta57 | cell proliferation inhibitory effect compared with positive control drug MDV3100 (VCaP cells): better than that of the positive control drug MDV3100 | acetylation of the tubulin in the cytoplasm (HDAC inhibitory activity) [2]: superior

CC1(C)C(=O)N(c2ccc(C#N)c(Cl)c2)C(=S)N1c1ccc(C(=O)NO)c(F)c1 [Zeta 34, 4-(3-(3-chloro-4-cyanophenyl)-5,5-dimethyl-4-oxo-2-thioimidazolidine-1-yl)-2-fluoro-N-hydroxybenzamide]
antagonist effect on the AR, antagonistic ability from high to low (androgen receptor (AR)): Zeta32>Zeta55>Zeta34>Zeta57>Zeta33 | H3 acetylation in the nucleus (HDAC inhibitory activity) [1]: superior | inhibitory effect on the VCap cell proliferation, from high to low (VCaP cells): Zeta55>Zeta32>Zeta33>Zeta34>Zeta57
